Assay [1] deals with Swiss Webster mice. As to the kind of experiment: Forced swim test (FST) in mice. The format is in vivo. To be noted: for antidepressant-type effect, reduction of immobility time: acute single I.P. administration, ketamine 1.5 mg/kg, melatonin 4 and 16 mg/kg, alone or combined, vs control group. As to the method: (§1) Male mice of the “Swiss Webster” strain between 25 and 35 grams were used. All mice were placed in polyethylene boxes (8 mice per box) at a controlled temperature between 21-22° C., in a room with the dark light cycle reversed (12:12 hours, with artificial light from 10 PM to 10 A.M). The behavior evaluations of the mice were carried out between 10 AM and 3 PM. These mice were fed Purina® for rodents and water ad libitum.
A single intraperitoneal administration (I.P.) was performed in a volume of […] of body weight, as the following treatment scheme: […]
The forced swim test consists of two sessions. In the first session (pre-test), the animals are placed in a glass cylinder with the following dimensions: 20 cm in diameter by 30 cm in height. The glass cylinder is filled with water to a height of 15 cm, at 23-25° C. temperature. The mice are kept in the cylinder for 15 minutes and are naturally forced to swim. The second session takes place 24 hours after the first session and 30 minutes after administering the different pharmacological treatments. The mice are placed in the glass cylinder for 5 minutes and videotaped for further analysis. The immobility of mice in FST is defined as depressive-type behavior and is manifested by a minimal amount of movements made by the animal to stay afloat. The antidepressant effect of a drug is reflected in this test as a decrease in immobility time and an increase in swimming compared to control animals (administered with the vehicle).

In assay [2] the test system is olfactory neuronal precursors. As to the kind of experiment: Formation of spines in cloned olfactory neuronal precursors. Format: cell-based, human. To be noted: ketamine 10^−7 M. As to the method: (§2) Cloned neuronal precursors obtained by exfoliation of the nasal cavity of a healthy subject without neuropsychiatric disease at the time of sample collection were used. These were grown according to the following process: • a) Solution 1 containing the culture medium characterized by containing one or more amino acids, one or more mineral salts, one or more vitamins, one or more growth factors of natural origin, and one or more antibiotics; • b) Solution 2 containing one or more pH regulators, and one or more calcium chelating agents, whose function is to moisten the cells that will later be propagated; • c) Solution 3 containing one or more substances that break proteins and that allow the separation between the cells by dispersing them; • d) Solution 4 containing one or more substances that allow the cells to be fixed to a glass support; • e) Solution 5 of cryopreservation containing one or more cryoprotective agents of neuronal origin cells; • f) Solution 6 of differentiation containing the maintenance solution without natural origin growth factors, and a cyclic nucleotide compound that induces differentiation; • g) Solution 7 containing one or more identifiers of specific protein molecules of the neuronal structure such that they allow to distinguish the neuronal cells from patients with neuropsychiatric diseases from healthy subjects; and • h) Solution 8 containing one or more fluorescent and/or enzymatic markers to recognize the identifiers of solution 7; up to passage 5 at a temperature of 37° C. in a 5% CO^2 atmosphere. Cells in passage 5 were incubated with increasing concentrations of ketamine or melatonin or the combination of both according to the following administration schedules:
(§3) • i. Incubation of the neuronal precursors with a vehicle (0) and ketamine for 12 hours (1), 24 hours (2), 48 hours (3) and 72 hours (4). • ii. Incubation of neuronal precursors with 10^−7 molar ketamine for 48 hours followed by incubation for 6 hours with 10^−7 molar ketamine and melatonin concentrations ranging from 10^−11 molar (7), from 10^−9 molar (8), 10^−7 molar (9) and 10^−5 molar (10), this evaluation was incorporated in a treatment with vehicle (0), with 10^−7 molar melatonin (5) and 10^−7 molar ketamine (6). Said treatment is outlined in FIG. 1. • iii. […]
Once the cells were fixed, they were processed to stain them with specific markers that recognize the spines, which are made up of spinophilin and filamentous actin (FIG. 2A and 2B). […] The spines were counted in 10 fields chosen at random and normalized between the total cells number present in each field (Table 1). […]

Assay [3] relates to olfactory neuronal precursors. Description: Cell cluster formation of olfactory neuronal precursors. The format is cell-based, human. As to the method: as §2, §3
Assay [4] concerns Swiss Webster mice. Description: Open field test (OFT) in mice. The format is in vivo. As to the method: as §1
In order to discard nonspecific actions of any of the treatments on locomotor activity, all the treatments studied in the TST and in the FST were analyzed in the OFT. Motor activity was measured in an apparatus formed by an opaque plexiglass box (40×30×20 cm), divided into 12 equal squares ([…]). The animal was placed in a corner of the cage and its behavior was videotaped for a period of 5 minutes. An observer, who was blinded to drug treatments, recorded the total number of times the animal crossed a square during the test. A count was considered when the animal fully crossed from one plaza to the next. Any change in the number of counts is considered as an alteration in locomotor activity. The test box was carefully cleaned after each session. To avoid changes in the behavior of the animals after the first experiment, the mice were used only once per test type.
The following groups of mice were treated under a single administration schedule: with a vehicle (26), a sub-effective dose of ketamine 1.5 mg/Kg (27), 3 mg/Kg (28), 10 mg/Kg (29), 20 mg/Kg (30), 30 mg/Kg (31), plus no effective dose of melatonin and 30 minutes later they were subjected to TST.
Under the same single administration scheme; (24, 7 and 0.5 h) before starting the trial, two other independent groups were administered with melatonin 4 mg/kg (33) and 16 mg/kg (34) plus no effective dose of ketamine, with their respective control (32). In other groups, melatonin 4 mg/kg +ketamine 1.5 mg/kg (36) and melatonin 16 mg/kg+ketamine 1.5 mg/kg (37) were administered, with their respective control (35).
The following groups of mice were treated under a triple administration scheme: with a vehicle (38), three administrations of melatonin 4 mg/Kg (39), three administrations of melatonin 16 mg/Kg (40), three administrations of ketamine 1.5 mg/Kg (41), three administrations of melatonin 4 mg/Kg+one administration of ketamine 1.5 mg/Kg (42) and three administrations of melatonin 16 mg/Kg+one administration of ketamine 1.5 mg/Kg (43) and 30 minutes later they were subjected to TST.
Evaluating the effect of melatonin in combination with ketamine on the ambulatory activity of mice in the open field test (OFT) all results are expressed as the mean±SEM of 8-12 animals. Comparisons were made using a one-way ANOVA analysis, followed by the Bonferroni test: * p<0.05, ** p<0.01, *** p<0.001.

Assay [5] deals with Swiss Webster mice. As to the kind of experiment: Tail suspension test (TST) in mice. Format: in vivo. To be noted: N 8.
[6] abbreviates: single administration, ketamine 1.5 mg/kg (group 27).
Setting [7] is: single administration, ketamine 3 mg/kg (group 28).
[8] abbreviates: single administration, ketamine 10 mg/kg (group 29).
The mark [9] stands for this setting: single administration, ketamine 20 mg/kg (group 30).
[10] abbreviates: single administration, ketamine 30 mg/kg (group 31).
[11] abbreviates: triple administration, ketamine 1.5 mg/kg (group 41).
Where [12] appears, read: single administration, melatonin 4 mg/kg (group 33).
[13] abbreviates: single administration, melatonin 16 mg/kg (group 34).
Setting [14] is: triple administration, melatonin 4 mg/kg (group 39).
Where [15] appears, read: triple administration, melatonin 16 mg/kg (group 40).

From patent US20230414568A1, “PHARMACEUTICAL COMBINATION FOR MOOD DISORDERS” (INSTITUTO NACIONAL DE PSIQUIATRÍA "RAMÓN DE LA FUENTE MUÑIZ", priority 2018, published 2023) come the findings set out here.

Marks after values point to notes of the source that are not given here.

On to `CNCCC(Oc1ccc(C(F)(F)F)cc1)c1ccccc1` (centres unmarked) [Fluoxetine, fluoxetine], for which the results for the Immobility time with Swiss Webster mice [1] (fluoxetine 5 mg/kg I.P. (group 19)) and in the assay with Swiss Webster mice [1] (fluoxetine 10 mg/kg I.P. (group 20)) were 49.76 ± 4.65 s and 35.25 ± 3.88 s, respectively.
As to `CNC1(c2ccccc2Cl)CCCCC1=O` (centres unmarked) [Ketamine, 2-(2-chlorophenyl)-2-(methylamino) cyclohexanone], the “antidepressant-type effect, reduction of immobility time” value in the assay on Swiss Webster mice [1] was “ineffective”. The Spines in assay [2] (incubation 12 h (group 1)) amounted to 10.25 ± 1.89%; in assay [2] (incubation 24 h (group 2)), 22.65 ± 2.16%; in assay [2] (incubation 48 h (group 3)), 45.31 ± 4.26%; in assay [2] (incubation 72 h (group 4)), 45.31 ± 3.88%. Also, the cell cluster is recorded as 7.12 ± 0.92% in assay [3] (ketamine 10^−7 M pre-treatment 48 h, then vehicle (group 6)) and 3.1 ± 1.0% in assay [3] (two vehicle administrations + one administration of ketamine 10^−7 M (group 13)). Moreover, the “ambulatory activity in OFT” value in the assay on Swiss Webster mice [4] (highest doses of ketamine (10 30 mg/kg), did not reach statistical significance, F(3,31)=2.99, p=0.047) is listed as “modified ambulatory activity”; with Swiss Webster mice [4] (ketamine 1.5, 3.0, 10.0 and 20.0 mg/kg, F(2,23)=0.545, p=0.589) it was “did not produce changes in the ambulatory activity”. The “Count number/5 min” value is on record as 40.12 ± 3.23 in the assay with Swiss Webster mice [4] (setting [6]); 45.25 ± 4.29 in the assay on Swiss Webster mice [4] (setting [7]); 56.62 ± 4.36** with Swiss Webster mice [4] (setting [8]); 56.00 ± 3.62** with Swiss Webster mice [4] (setting [9]); 60.12 ± 1.60*** with Swiss Webster mice [4] (setting [10]); 41.400 ± 3.97 in the assay with Swiss Webster mice [4] (setting [11]). Further, the “Stop number/5 min” value is listed as 28.62 ± 3.15 in the assay on Swiss Webster mice [4] (setting [6]); 28.25 ± 2.66 in the assay on Swiss Webster mice [4] (setting [7]); 45.25 ± 2.85** in the assay with Swiss Webster mice [4] (setting [8]); 45.50 ± 3.70 with Swiss Webster mice [4] (setting [9]); 45.37 ± 1.71 in the assay on Swiss Webster mice [4] (setting [10]); 28.000 ± 2.53 with Swiss Webster mice [4] (setting [11]). Besides, the “Count Number/5 min ± mean standard error” value was 40.12 ± 3.23 with Swiss Webster mice [5] (ketamine 1.5 mg/kg), 45.25 ± 4.29 in the assay on Swiss Webster mice [5] (ketamine 3 mg/kg) and 56.34 ± 4.36 with Swiss Webster mice [5] (ketamine 10 mg/kg).
Take `COc1ccc2[nH]cc(CCNC(C)=O)c2c1` [Melatonin, N-[2-(5-methoxy-1H-indol-3-yl)ethyl] acetamide]: the “antidepressant-type effect, reduction of immobility time” value in the assay with Swiss Webster mice [1] is “ineffective”. Further, the Immobility time in the assay on Swiss Webster mice [1] (melatonin 4 mg/kg I.P. (group 21)) is recorded as 41.21 ± 7.29 s; with Swiss Webster mice [1] (melatonin 16 mg/kg I.P. (group 22)), 17.38 ± 2.51 s. The cell cluster was 2.9 ± 0.9% in assay [3] (triple administration: three administrations of melatonin 10^−7 M (group 12)) and 7.61 ± 0.59% in assay [3] (vehicle pre-treatment, then melatonin 10^−7 M (group 5)). Besides, the “Count number/5 min” value in the assay on Swiss Webster mice [4] (setting [12]) is given as 41.12 ± 2.48; in the assay on Swiss Webster mice [4] (setting [13]) it was 38.50 ± 3.74; in the assay with Swiss Webster mice [4] (setting [14]), 47.200 ± 5.20; in the assay on Swiss Webster mice [4] (setting [15]), 42.625 ± 5.97. The “Stop number/5 min” value with Swiss Webster mice [4] (setting [12]) is recorded as 25.37 ± 2.18; in the assay on Swiss Webster mice [4] (setting [13]), 25.12 ± 2.36; in the assay on Swiss Webster mice [4] (setting [14]), 29.111 ± 2.16; with Swiss Webster mice [4] (setting [15]), 26.375 ± 4.60. Further, the results for the “Count Number/5 min ± mean standard error” value with Swiss Webster mice [5] (melatonin 4 mg/kg) and with Swiss Webster mice [5] (melatonin 16 mg/kg) were 41.125 ± 2.489 and 38.500 ± 3.746, respectively.
